Earlier results on six compounds are cited in PubChem BioAssay AID1259409 (Chemical Carcinogenesis Research Information System (CCRIS), 2018).

“And” between values parts separate entries of the source, which are not always exact repeats. Equal values may be shown once.

The subject of the series is rodent chemically induced tumor inhibition, incidence and multiplicity. The experiment in a line: CCRIS tumor inhibitor studies.

As to `O=c1c(-c2ccc(O)cc2)coc2cc(O)ccc12`, the “tumour outcome (control, treated, inhibition, significance)” value (Carcinogen: 7,12-DIMETHYLBENZ[A]ANTHRACENE (57-97-6), Dose [Inhibitor]: 105 MG/KG DIET FOR 17 WKS (STUDY DURATION: 17 WKS), Route [Inhibitor]: DIET, Species: RAT, Strain/Sex: SPRAGUE-DAWLEY/FEMALE (20,18)/(20,19), Target Tissue: Type of Lesion: MAMMARY, Dose [Carcinogen]: 12.5 MG ONCE 1 WK AFTER START OF DIET (STUDY DURATION: 17 WKS)) is listed as 95%, 85%, 11%, p=0.366; the “tumour outcome (control, treated, inhibition, significance)” value (Carcinogen: N-METHYL-N-NITROSOUREA, 684-93-5, Dose [Inhibitor]: 0, 1 MG/30 G BW 1/4 WK FOR 25 WK BEGINNING 5 WK POST CARCINOGEN TREATMENT (STUDY DURATION: 30 WK), Route [Inhibitor]: SUBCUTANEOUS, Species: MOUSE, Strain/Sex: ICR/FEMALE, Target Tissue: Type of Lesion: UTERUS (LEFT): ADENOCARCINOMA, Dose [Carcinogen]: 0.1 MG/KG BW INJECTED INTO LEFT UTERINE TUBE ONCE) is listed as 3/26 (11%), 0/14 (0%), 100%, not significant; the “tumour outcome (control, treated, inhibition, significance)” value (Carcinogen: N-METHYL-N-NITROSOUREA, 684-93-5, Dose [Inhibitor]: 0, 1 MG/30 G BW 1/4 WK FOR 25 WK BEGINNING 5 WK POST CARCINOGEN TREATMENT (STUDY DURATION: 30 WK), Route [Inhibitor]: SUBCUTANEOUS, Species: MOUSE, Strain/Sex: ICR/FEMALE, Target Tissue: Type of Lesion: UTERUS (LEFT): ADENOCARCINOMA, Dose [Carcinogen]: 0.1 MG/KG BW INJECTED INTO LEFT UTERINE TUBE ONCE, Promoter: 17-BETA-ESTRADIOL, 50-28-2) is 8/24 (33%), 1/23 (4%), 87%, p<0.05.
For `C=C(C)C1CC=C(CO)CC1` (stereo not given), the “tumour outcome (control, treated, inhibition, significance)” value is 100%, 79%, 21%, p<0.005 (Carcinogen: 4-(METHYLNITROSAMINO)-1-(3-PYRIDYL)-1-BUTANONE, 64091-91-4, Dose [Inhibitor]: 0, 75 MG/KG BW 3/WK FOR 22 WK BEGINNING 1 WK PRIOR TO CARCINOGEN TREATMENT (STUDY DURATION: 23 WK), Route [Inhibitor]: INTRAPERITONEAL, Species: MOUSE, Strain/Sex: C3AF1/MALE, Target Tissue: Type of Lesion: LUNG: TUMOR, Dose [Carcinogen]: 100 MG/KG BW 1/WK FOR 2 WK, Promoter: NONE USED); 78%, 64%, 18%, not significant and 78%, 56%, 29%, p<0.05 (Carcinogen: AZOXYMETHANE [25843-45-2], Dose [Inhibitor]: 1 G/KG IN DIET FOR 55 WK BEGINNING 2 WK PRIOR TO FIRST CARCINOGEN DOSE (STUDY DURATION: 55 WK), Route [Inhibitor]: ORAL, Species: RAT, Strain/Sex: F344/MALE, Target Tissue: Type of Lesion: COLON: ADENOCARCINOMA, Dose [Carcinogen]: 15 MG/KG BW 1/WK FOR 2 WK (STUDY DURATION: 55 WK), Promoter: NONE); 31%, 28%, 9%, not significant (Carcinogen: AZOXYMETHANE [25843-45-2], Dose [Inhibitor]: 1 G/KG IN DIET FOR 55 WK BEGINNING 2 WK PRIOR TO FIRST CARCINOGEN DOSE (STUDY DURATION: 55 WK), Route [Inhibitor]: ORAL, Species: RAT, Strain/Sex: F344/MALE, Target Tissue: Type of Lesion: SMALL INTESTINE: ADENOCARCINOMA, Dose [Carcinogen]: 15 MG/KG BW 1/WK FOR 2 WK (STUDY DURATION: 55 WK), Promoter: NONE); 31%, 11%, 64%, p<0.05 (Carcinogen: AZOXYMETHANE [25843-45-2], Dose [Inhibitor]: 2 G/KG IN DIET FOR 55 WK BEGINNING 2 WK PRIOR TO FIRST CARCINOGEN DOSE (STUDY DURATION: 55 WK), Route [Inhibitor]: ORAL, Species: RAT, Strain/Sex: F344/MALE, Target Tissue: Type of Lesion: SMALL INTESTINE: ADENOCARCINOMA, Dose [Carcinogen]: 15 MG/KG BW 1X/WK FOR 2 WK (STUDY DURATION: 55 WK), Promoter: NONE).
`NCCCCNCCCN`: the “tumour outcome (control, treated, inhibition, significance)” value runs as follows: (Carcinogen: TRANS-5-AMINO-3-[2-(5-NITRO-2-FURYL)VINYL]-1,2,4-OXADIAZOLE;SQL8506, 28754-68-9, Carcinogen: TRANS-5-AMINO-3-[2-(5-NITRO-2-FURYL)VINYL]-1,2,4-OXADIAZOLE;SQL8506, 28754-68-9, Dose [Inhibitor]: 150 MG/KG 16 HR BEFORE THE 1ST CARCINOGEN DOSE FOLLOWED BY ADDITIONAL DOSES IMMEDIATELY BEFORE EACH DOSE OF CARCINOGEN (, Route [Inhibitor]: INTRAPERITONEAL, Species: MOUSE, Strain/Sex: CD-1/FEMALE, Target Tissue: Type of Lesion: HEMATOPOIETIC SYSTEM: MYELOID LEUKEMIA, Dose [Carcinogen]: 1 G/KG 2/D FOR 5 D EVERY 4 WK FOR 3 COURSES OF TREATMENT, Promoter: NONE USED) 7/137 (5%), 2/31 (6%), -20%, not calculated; (Carcinogen: TRANS-5-AMINO-3-[2-(5-NITRO-2-FURYL)VINYL]-1,2,4-OXADIAZOLE;SQL8506, 28754-68-9, Carcinogen: TRANS-5-AMINO-3-[2-(5-NITRO-2-FURYL)VINYL]-1,2,4-OXADIAZOLE;SQL8506, 28754-68-9, Dose [Inhibitor]: 150 MG/KG 16 HR BEFORE THE 1ST CARCINOGEN DOSE FOLLOWED BY ADDITIONAL DOSES IMMEDIATELY BEFORE EACH DOSE OF CARCINOGEN (, Route [Inhibitor]: INTRAPERITONEAL, Species: MOUSE, Strain/Sex: CD-1/FEMALE, Target Tissue: Type of Lesion: LYMPHOID TISSUE: NONTHYMIC LYMPHOMA, Dose [Carcinogen]: 1 G/KG 2/D FOR 5 D EVERY 4 WK FOR 3 COURSES OF TREATMENT, Promoter: NONE USED) 8/137 (6%), 1/31 (3%), 50%, not calculated; (Carcinogen: TRANS-5-AMINO-3-[2-(5-NITRO-2-FURYL)VINYL]-1,2,4-OXADIAZOLE;SQL8506, 28754-68-9, Carcinogen: TRANS-5-AMINO-3-[2-(5-NITRO-2-FURYL)VINYL]-1,2,4-OXADIAZOLE;SQL8506, 28754-68-9, Dose [Inhibitor]: 150 MG/KG 16 HR BEFORE THE 1ST CARCINOGEN DOSE FOLLOWED BY ADDITIONAL DOSES IMMEDIATELY BEFORE EACH DOSE OF CARCINOGEN (, Route [Inhibitor]: INTRAPERITONEAL, Species: MOUSE, Strain/Sex: CD-1/FEMALE, Target Tissue: Type of Lesion: LYMPHOID TISSUE: THYMIC LYMPHOMA, Dose [Carcinogen]: 1 G/KG 2/D FOR 5 D EVERY 4 WK FOR 3 COURSES OF TREATMENT, Promoter: NONE USED) 22/137 (16%), 4/31 (13%), 19%, not calculated; (Carcinogen: TRANS-5-AMINO-3-[2-(5-NITRO-2-FURYL)VINYL]-1,2,4-OXADIAZOLE;SQL8506, 28754-68-9, Carcinogen: TRANS-5-AMINO-3-[2-(5-NITRO-2-FURYL)VINYL]-1,2,4-OXADIAZOLE;SQL8506, 28754-68-9, Dose [Inhibitor]: 150 MG/KG 16 HR BEFORE THE 1ST CARCINOGEN DOSE FOLLOWED BY ADDITIONAL DOSES IMMEDIATELY BEFORE EACH DOSE OF CARCINOGEN (, Route [Inhibitor]: INTRAPERITONEAL, Species: MOUSE, Strain/Sex: CD-1/FEMALE, Target Tissue: Type of Lesion: STOMACH: SQUAMOUS SARCOMA, Dose [Carcinogen]: 1 G/KG 2/D FOR 5 D EVERY 4 WK FOR 3 COURSES OF TREATMENT, Promoter: NONE USED) 60/137 (44%), 7/31 (23%), 48%, not calculated.
For `COc1cc2c3cc1Oc1c(OC)c(OC)cc4c1[C@@H](Cc1ccc(O)c(c1)Oc1ccc(cc1)C[C@@H]3N(C)CC2)N(C)CC4`, where the note is “Carcinogen: 7,12-DIMETHYLBENZ[A]ANTHRACENE, 57-97-6, Dose [Inhibitor]: 0, 2 UMOL 2/WK 30 MIN PRIOR TO EACH PROMOTER DOSE BEGINNING 1 WK POST CARCINOGEN DOSE (STUDY DURATION: 18 WK), Route [Inhibitor]: DERMAL, Species: MOUSE, Strain/Sex: ICR/FEMALE, Target Tissue: Type of Lesion: SKIN: PAPILLOMA, Dose [Carcinogen]: 50 UG ONCE, Promoter: 12-O-TETRADECANOYLPHORBOL-13-ACETATE, 16561-29-8”, the “tumour outcome (control, treated, inhibition, significance)” value is 100%, 20%, 80%, not calculated.
As to `Cc1ccc2oc(=O)ccc2c1`, for the setting “Carcinogen: BENZO[A]PYRENE, 50-32-8, Dose [Inhibitor]: 0.034 MMOL/G IN DIET FOR 5 WK BEGINNING 1 WK PRIOR TO FIRST CARCINOGEN DOSE AND CONTINUING FOR 3 D POST LAST CARCINOGEN, Route [Inhibitor]: ORAL, Species: MOUSE, Strain/Sex: ICR/FEMALE, Target Tissue: Type of Lesion: FORESTOMACH: TUMOR, Dose [Carcinogen]: 1 MG IN 0.2 ML CORN OIL 2/WK FOR 4 WK, Promoter: NONE USED”, the “tumour outcome (control, treated, inhibition, significance)” value is reported as 90%, 90%, 0%, not significant.
`C[C@]12CC[C@@H]3c4ccc(OC(=O)c5ccccc5)cc4CC[C@H]3[C@@H]1CC[C@@H]2O`: the “tumour outcome (control, treated, inhibition, significance)” value reads like this: (Carcinogen: 1,2-DIMETHYLHYDRAZINE DIHYDROCHLORIDE, 306-37-6, Dose [Inhibitor]: 0, 15 UG/KG IN PEANUT OIL ON DAYS 1 AND 3 OF STUDY THEN 1/WK FOR 30 WK (STUDY DURATION: 31 WK), Route [Inhibitor]: SUBCUTANEOUS, Species: RAT, Strain/Sex: SPRAGUE-DAWLEY/MALE, Target Tissue: Type of Lesion: COLON: ADENOCARCINOMA, Dose [Carcinogen]: 9 MG/KG 1/WK FOR 7 WK THEN 19.4 MG/KG 1/WK FOR 13 WK, Promoter: NONE USED) 14/14 (100%), 14/14 (100%), 0%, not significant; (Carcinogen: 1,2-DIMETHYLHYDRAZINE DIHYDROCHLORIDE, 306-37-6, Dose [Inhibitor]: 0, 15 UG/KG IN PEANUT OIL ON DAYS 1 AND 3 OF STUDY THEN 1/WK FOR 30 WK (STUDY DURATION: 31 WK), Route [Inhibitor]: SUBCUTANEOUS, Species: RAT, Strain/Sex: SPRAGUE-DAWLEY/MALE, Target Tissue: Type of Lesion: SMALL INTESTINE: ADENOCARCINOMA, Dose [Carcinogen]: 9 MG/KG 1/WK FOR 7 WK THEN 19.4 MG/KG 1/WK FOR 13 WK, Promoter: NONE USED) 13/14 (93%), 11/14 (79%), 15%, not significant.
